Measurements taken from patent publication US20250332173A1, “COMPOUNDS AND METHODS FOR MODULATING NUCLEIC ACID SPLICING” (REMIX THERAPEUTICS INC., priority 2021, published 2025).
Like-named read-outs stand apart in the source and are kept apart here.

Tested on: HTT mRNA
Experiment: RT-qPCR splicing assay, HTT canonical junction (CJ) and alternative junction (AJ) mRNA
Type: cell-based, human
Conditions: Homo sapiens; for AC50: increase in HTT alternative junction (AJ) mRNA, read-out: HTT AJ AC50
Procedure, shortened: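 A673 or K562 cells were treated for 24 h at 37 °C with an 11-point 3-fold compound dilution series (top final concentration 10 uM, DMSO ≤0.25%). After lysis, one-step TaqMan RT-qPCR quantified junction transcripts, normalized to PPIA for A673 or to GAPDH/GUSB for K562.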

[1] = decrease in HTT canonical junction (CJ) mRNA, RT-qPCR, read-out: HTT CJ IC50
[2] = Table 5 panel, canonical junction qPCR, compound concentration having 50% response in CJ decrease, read-out: HTT IC50 (decrease in CJ mRNA levels)
[3] = canonical junction qPCR panel, Table 5, read-out: HTT (decrease in CJ mRNA levels, IC50)

Compound: Cc1c(O)c(-c2ncc3c(=O)n(C4CCNCC4)cc(C)c3n2)cc2cn(C)nc12 [Compound 1191]
- IC50 [1]: 0.1 to 1 µM
- AC50 (RT-qPCR): < 0.1 µM
- IC50 [2]: < 0.1 µM

Compound: Cc1cn2cc(-c3ncc4c(=O)n([C@@H]5CCNC5)ccc4n3)cc(F)c2n1 [Compound 1228]
- IC50 [1]: > 10 µM
- AC50 (RT-qPCR): > 10 µM
- IC50 [2]: > 10 µM

Compound: Cc1c(O)c(-c2ncc3c(=O)n([C@H]4CCN[C@@H](C)C4)ccc3n2)cc2cn(C)nc12 [Compound 1441, 2-(6-hydroxy-2,7-dimethyl-indazol-5-yl)-6-(2-methyl-4-piperidyl)pyrido[4,3-d]pyrimidin-5-one]
- IC50 [1]: 0.1 to 1 µM
- AC50 (RT-qPCR): 0.1 to 1 µM
- IC50 [3]: 0.1 to 1 µM

Compound: Cc1c(O)c(-c2ncc3c(=O)n(N4CCNCC4)ccc3n2)cc2cn(C)nc12 [Compound 1303]
- IC50 [1]: 0.1 to 1 µM
- AC50 (RT-qPCR): 0.1 to 1 µM
- IC50 [3]: 0.1 to 1 µM

Compound: Cn1cc2cc(-c3ncc4c(=O)n(C5CCNCC5)ccc4n3)c(O)cc2n1 [Compound 1211]
- IC50 [1]: 0.1 to 1 µM
- AC50 (RT-qPCR): 0.1 to 1 µM
- IC50 [2]: 0.1 to 1 µM

Compound: Cc1cc(-c2cc3ccn(C4CCN(CCO)CC4)c(=O)c3cn2)cc2cn(C)nc12 [Compound 1210, 6-(2.7-dimethyl-2H-indazol-5-yl)-2-(1-(2-hydroxyethyl)piperidin-4-yl)-2,7-naphthyridin-1(2H)-one]
- IC50 [1]: > 10 µM
- AC50 (RT-qPCR): > 10 µM
- IC50 [2]: > 10 µM

Compound: Cc1c(O)c(-c2ccc3c(=O)n([C@@H]4CCNC4)ccc3n2)cc2cn(C)nc12 [Compound 1450, 2-(6-hydroxy-2,7-dimethyl-indazol-5-yl)-6-[(3R)-pyrrolidin-3-yl]-1,6-naphthyridin-5-one]
- IC50 [1]: 1 to 10 µM
- AC50 (RT-qPCR): 1 to 10 µM
- IC50 [3]: 1 to 10 µM

Compound: Cc1c(O)c(-c2ncc3c(=O)n(C4CCN(C)CC4)ccc3n2)cc2cn(C)nc12 [Compound 1304]
- IC50 [1]: 1 to 10 µM
- AC50 (RT-qPCR): 0.1 to 1 µM
- IC50 [3]: 0.1 to 1 µM

Compound: Cc1c(O)c(-c2ncc3c(=O)n(C45CCC(N)(CC4)C5)ccc3n2)cc2cn(C)nc12 [Compound 1428]
- IC50 [1]: > 10 µM
- AC50 (RT-qPCR): 1 to 10 µM
- IC50 [3]: 1 to 10 µM

Compound: COc1c(-c2ccc3c(=O)n(C4CCNCC4)ccc3n2)cc2cn(C)nc2c1C [Compound 1243]
- IC50 [1]: > 10 µM
- AC50 (RT-qPCR): > 10 µM
- IC50 [3]: > 10 µM

Compound: Cn1cc2cc(-c3ccc4c(=O)n([C@@H]5CCNC6(CC6)C5)ccc4n3)c(O)cc2n1 [Compound 1246]
- IC50 [1]: 0.1 to 1 µM
- AC50 (RT-qPCR): 0.1 to 1 µM
- IC50 [3]: 0.1 to 1 µM

Compound: Cn1cc2ccc(-n3cnc4cc(NC5CCNCC5)ccc4c3=O)cc2n1 [Compound 204]
- IC50 [1]: > 10 µM
- AC50 (RT-qPCR): > 10 µM
- IC50 [2]: > 10 µM

Compound: Cc1c(O)c(-c2ncc3c(=O)n(C4CNC4)ccc3n2)cc2cn(C)nc12 [Compound 1305, 6-(azetidin-3-yl)-2-(6-hydroxy-2,7-dimethyl-indazol-5-yl)pyrido[4,3-d]pyrimidin-5-one]
- IC50 [1]: > 10 µM
- AC50 (RT-qPCR): > 10 µM
- IC50 [3]: > 10 µM

Compound: Cc1c(O)c(-c2ncc3c(=O)n([C@H]4C[C@@H](N)C4)ccc3n2)cc2cn(C)nc12 [Compound 1431, 6-((1s,3s)-3-aminocyclobutyl)-2-(6-hydroxy-2,7-dimethyl-2H-indazol-5-yl)pyrido[4,3-d]pyrimidin-5(6H)-one]
- IC50 [1]: 1 to 10 µM
- AC50 (RT-qPCR): 1 to 10 µM
- IC50 [3]: 1 to 10 µM

Compound: Cc1c(O)c(-c2ncc3c(=O)n([C@@H]4C[C@@H](C)N[C@@H](C)C4)ccc3n2)cc2cn(C)nc12 [Compound 1453, 6-[(2S,6R)-2,6-dimethyl-4-piperidyl]-2-(6-hydroxy-2,7-dimethyl-indazol-5-yl)pyrido[4,3-d]pyrimidin-5-one]
- IC50 [1]: > 10 µM
- AC50 (RT-qPCR): 1 to 10 µM
- IC50 [3]: 1 to 10 µM

Compound: Cc1c(O)c(-c2ncc3c(=O)n(C4C[C@H]5C[C@@H]4CN5)ccc3n2)cc2cn(C)nc12 (stereo in doubt) [Compound 1444, 6-[(1R,4R,5R)-2-azabicyclo[2.2.1]heptan-5-yl]-2-(6-hydroxy-2,7-dimethyl-indazol-5-yl)pyrido[4,3-d]pyrimidin-5-one]
- IC50 [1]: 0.1 to 1 µM
- AC50 (RT-qPCR): 0.1 to 1 µM
- IC50 [3]: 0.1 to 1 µM
